Where “and” joins values, the source holds several entries; their conditions need not be identical. Identical values can stand only once.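 These data come from cells grown in 96-well plates and exposed to compound for 48 hours at five concentrations. GI50: concentration for 50% inhibition of growth. TGI: total growth inhibition.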
How the values were obtained:
Assay in all cases: DTP human tumour cell line panel, 48 h
HL-60(TB) leukemia = system: HL-60(TB) leukemia
IGROV1 ovarian = system: IGROV1 ovarian
SW-620 colon = system: SW-620 colon
ACHN renal = system: ACHN renal
HCC-2998 colon = system: HCC-2998 colon
SK-OV-3 ovarian = system: SK-OV-3 ovarian
OVCAR-3 ovarian = system: OVCAR-3 ovarian
NCI-H226 lung = system: NCI-H226 lung
SNB-19 CNS = system: SNB-19 CNS
PC-3 prostate = system: PC-3 prostate

| Compound | TGI (HL-60(TB) leukemia) | TGI (IGROV1 ovarian) | TGI (SW-620 colon) | TGI (ACHN renal) [µM] | TGI (HCC-2998 colon) [µM] | TGI (SK-OV-3 ovarian) | TGI (OVCAR-3 ovarian) [µM] | TGI (NCI-H226 lung) [µM] | GI50 (HL-60(TB) leukemia) [µM] | GI50 (IGROV1 ovarian) [µM] | GI50 (SW-620 colon) [µM] | GI50 (ACHN renal) [µM] | GI50 (HCC-2998 colon) [µM] | GI50 (SK-OV-3 ovarian) | GI50 (SNB-19 CNS) [µM] | GI50 (OVCAR-3 ovarian) [µM] | TGI (SNB-19 CNS) [µM] | GI50 (NCI-H226 lung) [µM] | TGI (PC-3 prostate) [µM] | GI50 (PC-3 prostate) [µM] |
| --- | --- | --- | --- | --- | --- | --- | --- | --- | --- | --- | --- | --- | --- | --- | --- | --- | --- | --- | --- | --- |
| Cc1ccc(/C=N/NS(=O)(=O)c2ccccc2)cc1C | > 100 µM | > 100 µM | > 100 µM | > 100 | > 100 | > 100 µM | > 100 | > 100 | – | – | – | – | – | – | – | – | – | – | – | – |
| CC(C)CCCCCCCCCCCCC(=O)NCC(=O)NC1C(C)OC(Nc2ncnc3nc[nH]c23)C(O)C1O (centres undefined) | 0.0046 µM and 0.0141 µM | 0.082 µM and < 0.0444 µM | 0.146 µM and 0.0233 µM | 0.00666 | – | 0.00397 µM and 0.0286 µM | 0.0024 | – | 0.001 | 0.00319 | 0.00218 | 0.00153 | 0.00121 | 0.000454 µM and 0.00314 µM | 0.00845 | – | – | – | – | – |
| CC[O-].CC[O-].O=C([CH-]C(=O)c1ccccc1)CCCCCCC(=O)[CH-]C(=O)c1ccccc1.[Ti+4] | > 100 µM | > 100 µM | > 100 µM | > 100 | > 100 | > 100 µM | > 100 | – | > 100 | > 100 | > 100 | > 100 | > 100 | > 100 µM | > 100 | > 100 | > 100 | – | – | – |
| O=[N+]([O-])c1cc(I)cc(/C=N/NS(=O)(=O)c2ccc(Cl)cc2)c1O | 55.8 µM | 45.1 µM | 82.4 µM | 51.4 | 46.3 | 65 µM | 36.1 | – | – | – | – | – | – | – | – | – | > 100 | – | – | – |
| CC(=O)NCc1c(C(N)=O)ncn1Cc1ccccc1 | > 100 µM | > 100 µM | > 100 µM | > 100 | > 100 | > 100 µM | > 100 | – | – | – | – | – | – | – | – | – | > 100 | – | – | – |
| C1C[OH+]CCNCC[OH+]CC[OH+]CCN1.N.[Cl-].[Pt+4] | > 100 µM | > 100 µM | > 100 µM | > 100 | > 100 | 96 µM | > 100 | > 100 | > 100 | 49.6 | 67.7 | 42 | 54.1 | 25.1 µM | > 100 | 89.1 | > 100 | 38.2 | – | – |
| O=C1NC2(CCCC2)C2CCCCC12O (centres undefined) | > 100 µM | > 100 µM | > 100 µM | > 100 | – | > 100 µM | > 100 | – | – | – | – | – | – | – | – | – | > 100 | – | – | – |
| CC(=O)OC1=C2CC[C@@H]3C(CC[C@@]4(C)C3CC[C@@H]4OC(C)=O)[C@@]2(C)CC(C#N)C1=O (some centres undefined) | 42.6 µM | 61.4 µM | > 100 µM | 71 | > 100 | 48.1 µM | 53.3 | > 100 | – | – | – | – | – | – | – | – | > 100 | – | – | – |
| COc1ccccc1NC(=O)C1=C(C)NC(C)=C(C(=O)Nc2ccccc2OC)C1c1ccccc1Cl | > 100 µM | > 100 µM | > 100 µM | > 100 | > 100 | > 100 µM | > 100 | > 100 | – | – | – | – | – | – | – | – | > 100 | – | – | – |
| COc1ccc(C[C@]23CCC(=O)N2CCc2cc(OC)c(O)cc23)cc1O | > 100 µM | > 100 µM | > 100 µM | > 100 | > 100 | – | > 100 | > 100 | – | – | – | – | – | – | – | – | > 100 | – | – | – |
| OCCN(CCO)c1nc(N2CCCCC2)c2nc(N(CCO)CCO)nc(N3CCCCC3)c2n1 | 36.5 µM | > 100 µM | > 100 µM | > 100 | 36.4 | – | 32.6 | > 100 | – | – | – | – | – | – | – | – | – | – | > 100 | – |
| COc1ccc(-c2oc3c(OC)c(OC)c(OC)c(O)c3c(=O)c2OC)cc1O | < 0.01 µM | 52.1 µM | > 100 µM | > 100 | 8.64 | 0.783 µM and 0.419 µM | – | – | – | 0.0358 | < 0.01 | 0.159 | – | < 0.01 µM | – | < 0.01 | – | – | – | – |
| O=S1(=O)c2cc(S(=O)(=O)n3ccnc3)ccc2NC2=NCCCN21 | 36.4 µM | > 100 µM | 73.8 µM | > 100 | 55.3 | 46.9 µM | 47.8 | 46.7 | – | – | – | – | – | – | – | – | > 100 | – | – | – |
| CN(C)CCN(C)C(=O)c1cccc2cccc(C(=O)O)c12 | > 100 µM | > 100 µM | > 100 µM | > 100 | > 100 | > 100 µM | > 100 | > 100 | – | – | – | – | – | – | – | – | > 100 | – | – | – |
| O=C(C=Nc1ccccc1S)c1ccco1 | 22.3 µM | 22.2 µM | 32.8 µM | > 100 | 36.6 | 10.1 µM | 31.2 | – | – | – | – | > 100 | 20.6 | 3.2 µM | – | – | 16.3 | – | – | – |
| COc1cc(/C=C2\NC(=O)C3Cc4c(OC)c(C)c(OC)c(OC)c4C2N3C)c(OC)c(C)c1OC (centres undefined) | > 100 µM | > 100 µM | – | > 100 | > 100 | > 100 µM | > 100 | > 100 | – | – | – | – | – | – | – | – | > 100 | – | – | – |
| CC(=O)[CH-]C(C)=O.CC(=O)[CH-]C(C)=O.[Cl-].[O]=[V] | – | 64.2 µM | > 100 µM | – | > 100 | – | 51.6 | 76.1 | – | 11.1 | 38.9 | – | 37.1 | – | 39.9 | 25.5 | > 100 | 27.5 | – | – |
| Cc1nc2ccccc2c(/C=C/c2ccccc2)c1C(=O)/C=C/c1ccc(C(F)(F)F)cc1 | 5.28 µM | 2.02 µM | 3.49 µM | 2.75 | 2.9 | – | – | 3.67 | 1.7 | 0.414 | 1.02 | 1.44 | 1.4 | – | 1.65 | – | 3.05 | 1.73 | 5.02 | 1.55 |
| COc1ccc(-c2cc(-c3ccc(OC)cc3)nc(NCCCNc3ccnc4cc(Cl)ccc34)n2)cc1 | 3.86 µM | 3.12 µM | 3.34 µM | 3.22 | 3.2 | 3.14 µM | 3.14 | 28.2 | 1.91 | 1.51 | 1.69 | 1.82 | 1.73 | 1.71 µM | 1.96 | 1.7 | 3.99 | 11.3 | – | – |
| O=C1c2cc3c(cc2-c2c1c1ccc(F)cc1c(=O)n2C[C@H](O)[C@H](O)[C@H](O)CO)OCO3 | 0.749 µM | > 100 µM | > 100 µM | – | – | 0.694 µM | 0.431 | – | 0.148 | 0.322 | 0.0967 | – | – | 0.186 µM | 0.0927 | 0.167 | > 100 | – | 14.9 | 0.204 |
| [Co].[O-]c1cccnc1C=Nc1ccccc1.[OH3+] | > 100 µM | > 100 µM | > 100 µM | > 100 | – | > 100 µM | > 100 | – | 21.8 | > 100 | > 100 | 79.9 | – | > 100 µM | > 100 | > 100 | > 100 | – | – | – |
| CCOC(=O)CNC(=O)OCc1ccccc1 | > 100 µM | > 100 µM | > 100 µM | > 100 | > 100 | > 100 µM | > 100 | – | – | – | – | – | – | – | – | – | > 100 | – | – | – |
| NNc1nc2ccccc2o1 | > 100 µM | > 100 µM | > 100 µM | > 100 | > 100 | – | – | > 100 | – | – | – | – | – | – | – | – | > 100 | – | > 100 | – |
| O=C(O)CCSC(=O)Nc1cccc2ccccc12 | – | > 100 µM | > 100 µM | > 100 | > 100 | > 100 µM | > 100 | > 100 | – | – | – | – | – | – | – | – | > 100 | – | – | – |
| CN=C1CN=C(OP(=O)(N2CCOCC2)N2CCOCC2)c2cc(Cl)ccc2N1 | > 100 µM | – | > 100 µM | > 100 | > 100 | – | > 100 | > 100 | – | – | – | – | – | – | – | – | > 100 | – | – | – |
| O=C(CC1(O)C(=O)Nc2ccccc21)c1ccc(Cl)cc1Cl (centres undefined) | > 100 µM | > 100 µM | > 100 µM | > 100 | – | > 100 µM | > 100 | > 100 | – | – | – | – | – | – | – | – | > 100 | – | – | – |
| CO/C=C(\Br)c1ccc2c(c1)OCO2 | > 100 µM | > 100 µM | > 100 µM | > 100 | – | > 100 µM | > 100 | > 100 | – | – | – | – | – | – | – | – | > 100 | – | – | – |
| COc1ccc(C2=NN(C(C)=O)C(c3ccc(Oc4ccnc5cc(Cl)ccc45)c(OC)c3)C2)cc1 (centres undefined) | > 100 µM | > 100 µM | > 100 µM | > 100 | > 100 | 42.9 µM | > 100 | – | > 100 | 6.29 | > 100 | 4.03 | > 100 | 6.01 µM | 26.8 | 5.4 | > 100 | – | – | – |
| C/C(=C\C(C[C@](C)(O)C(O)CCC#C[Si](C)(C)C)S(=O)(=O)c1ccccc1)CC/C=C/CO[Si](C)(C)C(C)(C)C (some centres undefined) | 33.2 µM | 41 µM | 35.3 µM | 29.6 | 40.6 | 40.3 µM | 29.6 | 38.8 | – | – | – | – | – | – | – | – | 41.6 | – | – | – |
| CCC[CH2][Sn]1([CH2]CCC)[O]CC[S]1 | 1.22 µM | 4.64 µM | 1.11 µM | 2.23 | 2.26 | 2.96 µM | 2.13 | 2.36 | 0.268 | 1.55 | 0.268 | 1.03 | 1.05 | 1.61 µM | 0.446 | 0.848 | 1.6 | 1.02 | – | – |
